The assay has as its target T1, human TAS1R2-WT/TAS1R3-S446N (Homo sapiens, UniProt Q7RTX0+Q8TE23, S446N).
T1 construct: expressed in transfected cells; host or cells: HEK293T stably expressing Gα16gust44
T1 sequence (Q8TE23 20-839): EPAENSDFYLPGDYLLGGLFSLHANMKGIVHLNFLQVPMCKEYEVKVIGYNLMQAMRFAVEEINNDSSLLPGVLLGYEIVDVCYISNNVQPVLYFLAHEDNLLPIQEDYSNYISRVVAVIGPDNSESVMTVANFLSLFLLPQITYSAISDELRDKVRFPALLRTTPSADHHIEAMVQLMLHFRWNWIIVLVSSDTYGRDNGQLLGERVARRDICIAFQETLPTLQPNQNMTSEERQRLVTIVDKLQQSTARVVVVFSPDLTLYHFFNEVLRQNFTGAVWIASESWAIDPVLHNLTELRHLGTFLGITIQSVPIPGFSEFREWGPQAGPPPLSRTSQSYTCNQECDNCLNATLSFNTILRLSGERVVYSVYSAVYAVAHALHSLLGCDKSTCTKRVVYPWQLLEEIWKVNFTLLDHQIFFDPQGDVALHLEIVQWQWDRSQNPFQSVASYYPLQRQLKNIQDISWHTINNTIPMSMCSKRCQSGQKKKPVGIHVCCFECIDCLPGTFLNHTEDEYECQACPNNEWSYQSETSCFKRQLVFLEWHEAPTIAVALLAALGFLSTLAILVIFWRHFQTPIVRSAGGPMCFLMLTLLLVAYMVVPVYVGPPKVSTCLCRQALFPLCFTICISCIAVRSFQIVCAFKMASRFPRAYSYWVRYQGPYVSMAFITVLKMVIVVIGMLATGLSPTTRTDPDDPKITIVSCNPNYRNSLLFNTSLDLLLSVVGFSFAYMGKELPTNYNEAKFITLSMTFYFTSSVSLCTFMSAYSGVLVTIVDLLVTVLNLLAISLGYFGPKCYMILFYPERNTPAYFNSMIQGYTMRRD
T1 sequence (Q7RTX0 21-852 S446N): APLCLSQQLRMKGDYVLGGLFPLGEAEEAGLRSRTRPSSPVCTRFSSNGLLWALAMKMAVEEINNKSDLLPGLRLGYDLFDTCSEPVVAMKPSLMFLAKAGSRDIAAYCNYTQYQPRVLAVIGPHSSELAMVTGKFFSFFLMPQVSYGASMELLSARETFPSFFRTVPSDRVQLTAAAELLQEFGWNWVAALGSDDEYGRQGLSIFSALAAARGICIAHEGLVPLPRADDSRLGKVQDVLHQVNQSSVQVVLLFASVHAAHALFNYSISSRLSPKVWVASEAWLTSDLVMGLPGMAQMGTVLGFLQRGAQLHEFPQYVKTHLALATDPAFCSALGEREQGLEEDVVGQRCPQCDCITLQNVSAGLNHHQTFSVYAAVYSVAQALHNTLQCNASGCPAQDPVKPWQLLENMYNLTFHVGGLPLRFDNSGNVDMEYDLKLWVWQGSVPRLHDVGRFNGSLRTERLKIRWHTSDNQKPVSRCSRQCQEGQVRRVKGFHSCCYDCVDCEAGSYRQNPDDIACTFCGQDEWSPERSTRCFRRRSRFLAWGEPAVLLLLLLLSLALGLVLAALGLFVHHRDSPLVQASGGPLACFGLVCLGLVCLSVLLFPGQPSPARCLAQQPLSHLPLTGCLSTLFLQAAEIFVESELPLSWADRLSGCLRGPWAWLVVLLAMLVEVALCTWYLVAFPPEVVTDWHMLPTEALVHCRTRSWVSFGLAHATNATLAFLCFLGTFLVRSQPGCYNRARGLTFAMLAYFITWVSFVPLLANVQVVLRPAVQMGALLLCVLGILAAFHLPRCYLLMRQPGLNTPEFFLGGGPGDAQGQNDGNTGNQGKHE
Put plainly: Calcium mobilisation assay, TAS1R2-WT with TAS1R3 variant S446N. Format: cell-based. The following applies: for Max ΔF/F0: maximal signal amplitude. The text has this:
The coding sequences for TAS1R2 and TAS1R3 were commercially synthesised, and the human codon was optimised for expression in human cells. The coding sequences of human TAS1R2 and TAS1R3 were subcloned and inserted into the mammalian expression vectors pcDNA6/myc-HisA and pcDNA4/myc-HisA (Invitrogen; Thermo Fisher Scientific; Illkirch, France) between the EcoRI and NotI restriction sites, generating the plasmids pcDNA6-TAS1R2 and pcDNA4-TAS1R3, respectively. To increase protein expression in mammalian cells, an upstream start codon was used, which was a sequence called MAX, corresponding to the QBI SP163 element also described in pcDNA4-HisMax (Invitrogen; Thermo Fisher Scientific; Illkirch, France). To measure the expression level of the receptor by immunohistochemistry, we used the FLAG sequence ([…]) in the C-terminal position, which encodes the FLAG tag epitope. SNP variants of TAS1R2 and TAS1R3 were constructed based on […], respectively, using site-directed mutagenesis (Genewiz; Leipzig, Germany).
The HEK293T cells were kindly provided by Jay P. Slack (Givaudan Flavors Corporation; Cincinnati, OH, USA). HEK293T cells stably transfected with Gα16gust44 [43, 67] were seeded in poly-D-lysine-coated clear-bottom black 96-well plates (0.35 × 10^5 cells/well) in high-glucose DMEM supplemented with 2 mM GlutaMAX, 10% dialysed foetal bovine serum with penicillin/streptomycin and G418 (400 μg/mL) at 37 °C and 6.3% CO2 in a humidified atmosphere as previously reported. […] As a negative control, HEK293T cells were mock-transfected with the empty expression vector. After a further 24 h of incubation, the HEK293T cells were washed with C1 buffer (130 mM NaCl, 5 mM KCl, 10 mM HEPES pH 7.4 and 2 mM CaCl2). The 96-well plates containing the cells were then stimulated with sweet-tasting compounds. […] Different concentration ranges were tested depending on the sweet compound injected. The Ca^2+ changes were expressed as fractional changes in fluorescent light intensity: ΔF/F = (F − F0)/F0, where F was the fluorescent light intensity at each point, and F0 was the value of emitted fluorescent light prior to stimulus application. To calculate dose–response relationships, the changes in fluorescence upon stimulus application were averaged, mock-subtracted and baseline-corrected. The dose–response data obtained were adjusted using a 4-parameter logistic equation. The half-maximal effective concentrations (EC50 values) and maximal signal amplitudes were calculated using SigmaPlot software (version 15.0) (Systat Software; San Jose, CA, USA).
For in vitro calcium mobilisation assay performed on hTAS1R2-SNPs, hTAS1R3-SNPs and mTAS1R3-I60T, 6 to 7 concentrations were tested for each sweet compound, plus buffer alone. All concentration–receptor combinations were measured in duplicate, and each experiment was repeated at least 4 times (8 wells/concentration). Results were expressed for each concentration as ΔF/F mean ± SEM and represented as dose–response curves.
On the technique in general: A change in cytosolic calcium serves as a functional read-out for many receptors and channels.

Where two headings read alike, the source gives them in different places. No end group written: not given here.

The values below come from PMC11945486, “TAS1R2/TAS1R3 Single-Nucleotide Polymorphisms Affect Sweet Taste Receptor Activation by Sweeteners: The SWEET Project” (Nutrients, 2025).

One may read the EC50 as the concentration that produces a half-maximal response. Regarding `CC1=CC(=O)NS(=O)(=O)O1` [Acesulfame K, acesulfame K], the “R1 = Variant EC50/WT EC50” value was determined as 0.8 and the “Max ΔF/F0” value is recorded as 0.19 ± 0.01. The concentration for a half-maximal effect (EC50) (read-out: EC50) came to 487 ± 78 µM.

`O=S(=O)(O)NC1CCCCC1` [Cyclamate, cyclamate]: the EC50 (read-out: EC50) came to 1480 ± 45 µM.

Consider `C[C@H](CC[C@@H](O[C@@H]1O[C@H](CO[C@@H]2O[C@H](CO)[C@@H](O)[C@H](O)[C@H]2O)[C@@H](O)[C@H](O)[C@H]1O[C@@H]1O[C@H](CO)[C@@H](O)[C@H](O)[C@H]1O)C(C)(C)O)[C@H]1CC[C@@]2(C)[C@@H]3CC=C4[C@@H](CC[C@H](O[C@@H]5O[C@H](CO[C@@H]6O[C@H](CO)[C@@H](O)[C@H](O)[C@H]6O)[C@@H](O)[C@H](O)[C@H]5O)C4(C)C)[C@]3(C)[C@H](O)C[C@]12C` [Mogroside V, mogroside V], for which the “R1 = Variant EC50/WT EC50” value is reported as 1.5 and the “Max ΔF/F0” value is given as 0.86 ± 0.01. Under “read-out: EC50”, the concentration for a half-maximal effect (EC50) amounted to 47.7 ± 1.5 µM.

As for `COc1ccc(CCC(=O)c2c(O)cc(O[C@@H]3O[C@H](CO)[C@@H](O)[C@H](O)[C@H]3O[C@@H]3O[C@@H](C)[C@H](O)[C@@H](O)[C@H]3O)cc2O)cc1O` [NHDC, neohesperidin dihydrochalcone], the “R1 = Variant EC50/WT EC50” value came out at 1.0 and the “Max ΔF/F0” value is 1.07 ± 0.06. Under “read-out: EC50”, the EC50 was determined as 49.4 ± 8.6 µM.

In the case of `COC(=O)[C@H](Cc1ccccc1)NC(=O)[C@H](CC(=O)O)NCCC(C)(C)C` [Neotame], the “R1 = Variant EC50/WT EC50” value is listed as 1.0 and the “Max ΔF/F0” value is recorded as 0.63 ± 0.02. Moreover, for the setting “read-out: EC50”, the half-maximal effective concentration (EC50) is 1.22 ± 0.1 µM.

`C=C(C)[C@@H]1CC=C(/C=N/O)CC1` [Perillartine, perillartine]: the “R1 = Variant EC50/WT EC50” value is listed as 1.1 and the “Max ΔF/F0” value is reported as 1.42 ± 0.26. In addition, the EC50 (read-out: EC50) came to 15.3 ± 8.6 µM.

As to `C=C1C[C@@]23CC[C@H]4[C@@](C)(CCC[C@@]4(C)C(=O)O[C@@H]4O[C@H](CO)[C@@H](O)[C@H](O[C@@H]5O[C@H](CO)[C@@H](O)[C@H](O)[C@H]5O)[C@H]4O[C@@H]4O[C@H](CO)[C@@H](O)[C@H](O)[C@H]4O)[C@@H]2CC[C@]1(O[C@@H]1O[C@H](CO)[C@@H](O)[C@H](O[C@@H]2O[C@H](CO)[C@@H](O)[C@H](O)[C@H]2O)[C@H]1O[C@@H]1O[C@H](CO)[C@@H](O)[C@H](O)[C@H]1O)C3` [Rebaudioside M, rebaudioside M], the “R1 = Variant EC50/WT EC50” value is given as 0.9 and the “Max ΔF/F0” value is recorded as 0.64 ± 0.03. For the same molecule, the EC50 (read-out: EC50) is 36.9 ± 3.6 µM.

Take `OC[C@H]1O[C@H](O[C@]2(CCl)O[C@H](CCl)[C@@H](O)[C@@H]2O)[C@H](O)[C@@H](O)[C@H]1Cl` [Sucralose]: the “R1 = Variant EC50/WT EC50” value was 1.4 and the “Max ΔF/F0” value amounted to 0.68 ± 0.02. Further, the concentration giving a half-maximal response (EC50) (read-out: EC50) was 155 ± 11 µM.

For “brazzein (QDKCKKVYENYPVSKCQLANQCNYDCKLDKHARSGECFYDEKRNLQCICDYCEY; ends and bridges not checked; cysteine pairing not given here; UniProt P56552 1-54, looked up) [sweet-tasting protein obtained by recombinant production using the yeast Pichia pastoris]”, the “R1 = Variant EC50/WT EC50” value turned out to be 1.1 and the “Max ΔF/F0” value is recorded as 0.98 ± 0.03. In addition, the concentration for a half-maximal effect (EC50) (brazzein) is on record as 120.8 ± 9.3 mg/L.

On to thaumatin, for which the “R1 = Variant EC50/WT EC50” value was 0.9 and the “Max ΔF/F0” value is reported as 0.70 ± 0.04.

B1: thaumatin (protein)
chain: ATFEIVNRCSYTVWAAASKGDAALDAGGRQLNSGESWTINVEPGTKGGKIWARTDCYFDDSGSGICKTGDCGGLLRCKRFGRPPTTLAEFSLNQYGKDYIDISNIKGFNVPMDFSPTTRGCRGVRCAADIVGQCPAKLKAPGGGCNDACTVFQTSEYCCTTGKCGPTEYSRFFKRLCPDAFSYVLDKPTTVTCPGSSNYRVTFCPTA
modifications: Eight disulfides
notes: sweet-tasting plant protein, E957
Turning to B1, for the setting “read-out: EC50”, the half-maximal effective concentration (EC50) came out at 9.8 ± 1.1 µM.
